According to the supplement of paper PMC10307832:

How the values were obtained:
Assay in all cases: relative viability (nuclei count vs DMSO), 5 days (fraction); higher = more cells survive
SW 900 = test system: SW 900
Procedure, shortened: (§1)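 The day after seeding in 1536-well plates, lung cancer cell lines were treated by pin tool with a single drug, or with a fixed anchor-drug dose together with five library-drug doses (not always all listed) in √10 steps. After 5 days, a combined fix-and-stain solution (final 0.05% Triton X-100, 1% formaldehyde, 1 ug/ml Hoechst) was added. Nuclei counted on 4× images gave relative viability as treated counts over vehicle counts, reported as the median of duplicate plates.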

H3255 = test system: H3255
Procedure, shortened: as §1

COR-L23 = test system: COR-L23
Procedure, shortened: as §1

NCI-H2170 = test system: NCI-H2170
Procedure, shortened: as §1

NCI-H322M = test system: NCI-H322M
Procedure, shortened: as §1

NCI-H2023 = test system: NCI-H2023
Procedure, shortened: as §1

EPLC-272H = test system: EPLC-272H
Procedure, shortened: as §1

NCI-H3122 = test system: NCI-H3122
Procedure, shortened: as §1

NCI-H1563 = test system: NCI-H1563
Procedure, shortened: as §1

NCI-H2347 = test system: NCI-H2347
Procedure, shortened: as §1

NCI-H1650 = test system: NCI-H1650
Procedure, shortened: as §1

HCC-15 = test system: HCC-15
Procedure, shortened: as §1

NCI-H520 = test system: NCI-H520
Procedure, shortened: as §1

NCI-H1793 = test system: NCI-H1793
Procedure, shortened: as §1

PC-14 = test system: PC-14
Procedure, shortened: as §1

NCI-H2405 = test system: NCI-H2405
Procedure, shortened: as §1

NCI-H647 = test system: NCI-H647
Procedure, shortened: as §1

LOU-NH91 = test system: LOU-NH91
Procedure, shortened: as §1

UMC-11 = test system: UMC-11
Procedure, shortened: as §1

NCI-H441 = test system: NCI-H441
Procedure, shortened: as §1

201T = test system: 201T
Procedure, shortened: as §1

NCI-H1734 = test system: NCI-H1734
Procedure, shortened: as §1

Compound: Cc1sc2c(c1C)C(c1ccc(Cl)cc1)=N[C@@H](CC(=O)OC(C)(C)C)c1nnc(C)n1-2 [JQ1] + COc1cccc2cc(-c3nc([C@H]4CC[C@H](C(=O)O)CC4)n4ncnc(N)c34)[nH]c12 [OSI-027] (partner 0.5 µM)
- relative viability (SW 900; first compound 0.04 µM): 0.572
- relative viability (SW 900; first compound 0.1265 µM): 0.627
- relative viability (SW 900; first compound 0.4 µM): 0.352
- relative viability (SW 900; first compound 1.265 µM): 0.165
- relative viability (SW 900; first compound 4 µM): 0.166
- relative viability (H3255; first compound 0.04 µM): 0.532
- relative viability (H3255; first compound 0.1265 µM): 0.672
- relative viability (H3255; first compound 0.4 µM): 0.629
- relative viability (H3255; first compound 1.265 µM): 0.438
- relative viability (H3255; first compound 4 µM): 0.444
- relative viability (COR-L23; first compound 0.04 µM): 0.861
- relative viability (COR-L23; first compound 0.1265 µM): 0.662
- relative viability (COR-L23; first compound 0.4 µM): 0.699
- relative viability (COR-L23; first compound 1.265 µM): 0.293
- relative viability (COR-L23; first compound 4 µM): 0.46
- relative viability (NCI-H2170; first compound 0.04 µM): 0.683
- relative viability (NCI-H2170; first compound 0.1265 µM): 0.623
- relative viability (NCI-H2170; first compound 0.4 µM): 0.688
- relative viability (NCI-H2170; first compound 1.265 µM): 0.422
- relative viability (NCI-H2170; first compound 4 µM): 0.362
- relative viability (NCI-H322M; first compound 0.04 µM): 0.518
- relative viability (NCI-H322M; first compound 0.1265 µM): 0.589
- relative viability (NCI-H322M; first compound 0.4 µM): 0.477
- relative viability (NCI-H322M; first compound 1.265 µM): 0.321
- relative viability (NCI-H322M; first compound 4 µM): 0.339
- relative viability (NCI-H2023; first compound 0.04 µM): 0.362
- relative viability (NCI-H2023; first compound 0.1265 µM): 0.377
- relative viability (NCI-H2023; first compound 0.4 µM): 0.262
- relative viability (NCI-H2023; first compound 1.265 µM): 0.142
- relative viability (NCI-H2023; first compound 4 µM): 0.148
- relative viability (EPLC-272H; first compound 0.04 µM): 0.26
- relative viability (EPLC-272H; first compound 0.1265 µM): 0.336
- relative viability (EPLC-272H; first compound 0.4 µM): 0.275
- relative viability (EPLC-272H; first compound 1.265 µM): 0.237
- relative viability (EPLC-272H; first compound 4 µM): 0.248
- relative viability (NCI-H3122; first compound 0.04 µM): 0.898
- relative viability (NCI-H3122; first compound 0.4 µM): 0.784
- relative viability (NCI-H3122; first compound 1.265 µM): 0.392
- relative viability (NCI-H3122; first compound 4 µM): 0.264
- relative viability (NCI-H1563; first compound 0.04 µM): 0.735
- relative viability (NCI-H1563; first compound 0.1265 µM): 0.704
- relative viability (NCI-H1563; first compound 0.4 µM): 0.605
- relative viability (NCI-H1563; first compound 1.265 µM): 0.552
- relative viability (NCI-H1563; first compound 4 µM): 0.545
- relative viability (NCI-H2347; first compound 0.04 µM): 0.328
- relative viability (NCI-H2347; first compound 0.1265 µM): 0.536
- relative viability (NCI-H2347; first compound 0.4 µM): 0.305
- relative viability (NCI-H2347; first compound 1.265 µM): 0.346
- relative viability (NCI-H2347; first compound 4 µM): 0.31
- relative viability (NCI-H1650; first compound 0.04 µM): 0.51
- relative viability (NCI-H1650; first compound 0.1265 µM): 0.447
- relative viability (NCI-H1650; first compound 0.4 µM): 0.328
- relative viability (NCI-H1650; first compound 1.265 µM): 0.153
- relative viability (NCI-H1650; first compound 4 µM): 0.206
- relative viability (HCC-15; first compound 0.04 µM): 0.693
- relative viability (HCC-15; first compound 0.4 µM): 0.593
- relative viability (HCC-15; first compound 1.265 µM): 0.347
- relative viability (HCC-15; first compound 4 µM): 0.315
- relative viability (NCI-H520; first compound 0.04 µM): 0.211
- relative viability (NCI-H520; first compound 0.1265 µM): 0.325
- relative viability (NCI-H520; first compound 0.4 µM): 0.201
- relative viability (NCI-H520; first compound 1.265 µM): 0.217
- relative viability (NCI-H520; first compound 4 µM): 0.208
- relative viability (NCI-H1793; first compound 0.04 µM): 0.237
- relative viability (NCI-H1793; first compound 0.1265 µM): 0.343
- relative viability (NCI-H1793; first compound 0.4 µM): 0.38
- relative viability (NCI-H1793; first compound 1.265 µM): 0.241
- relative viability (NCI-H1793; first compound 4 µM): 0.286
- relative viability (PC-14; first compound 0.04 µM): 0.713
- relative viability (PC-14; first compound 0.1265 µM): 0.638
- relative viability (PC-14; first compound 0.4 µM): 0.514
- relative viability (PC-14; first compound 1.265 µM): 0.311
- relative viability (PC-14; first compound 4 µM): 0.343
- relative viability (NCI-H2405; first compound 0.04 µM): 0.651
- relative viability (NCI-H2405; first compound 0.1265 µM): 0.632
- relative viability (NCI-H2405; first compound 0.4 µM): 0.696
- relative viability (NCI-H2405; first compound 1.265 µM): 0.58
- relative viability (NCI-H2405; first compound 4 µM): 0.582
- relative viability (NCI-H647; first compound 0.04 µM): 0.567
- relative viability (NCI-H647; first compound 0.1265 µM): 0.469
- relative viability (NCI-H647; first compound 0.4 µM): 0.388
- relative viability (NCI-H647; first compound 1.265 µM): 0.293
- relative viability (NCI-H647; first compound 4 µM): 0.174
- relative viability (LOU-NH91; first compound 0.04 µM): 0.721
- relative viability (LOU-NH91; first compound 0.1265 µM): 0.674
- relative viability (LOU-NH91; first compound 0.4 µM): 0.564
- relative viability (LOU-NH91; first compound 1.265 µM): 0.537
- relative viability (LOU-NH91; first compound 4 µM): 0.431
- relative viability (UMC-11; first compound 0.04 µM): 0.396
- relative viability (UMC-11; first compound 0.1265 µM): 0.399
- relative viability (UMC-11; first compound 0.4 µM): 0.258
- relative viability (UMC-11; first compound 1.265 µM): 0.192
- relative viability (UMC-11; first compound 4 µM): 0.182
- relative viability (NCI-H441; first compound 0.04 µM): 0.718
- relative viability (NCI-H441; first compound 0.1265 µM): 0.583
- relative viability (NCI-H441; first compound 0.4 µM): 0.705
- relative viability (NCI-H441; first compound 1.265 µM): 0.392
- relative viability (NCI-H441; first compound 4 µM): 0.334
- relative viability (201T; first compound 0.04 µM): 0.761
- relative viability (201T; first compound 0.1265 µM): 0.596
- relative viability (201T; first compound 0.4 µM): 0.688
- relative viability (201T; first compound 1.265 µM): 0.238
- relative viability (201T; first compound 4 µM): 0.201
- relative viability (NCI-H1734; first compound 0.04 µM): 0.619
- relative viability (NCI-H1734; first compound 0.1265 µM): 0.508
- relative viability (NCI-H1734; first compound 0.4 µM): 0.601
- relative viability (NCI-H1734; first compound 1.265 µM): 0.354
- relative viability (NCI-H1734; first compound 4 µM): 0.413
